pIC50: −log10 of the molar value.
What was measured:
[1] = system: EGFR L858R T790M Ba/F3; assay: CellTiter-Glo cell viability, EGFR L858R T790M Ba/F3; type: cell-based; conditions: Mus musculus, BaF3, 72 h, read-out: EGFR L858R T790M Ba/F3 CTG IC50 /
Experimental: (§1) The CellTiter-Glo Luminescent Cell Viability Assay (Promega) is a homogeneous method of determining the number of viable cells in culture. It is based on quantification of ATP, indicating the presence of metabolically active cells. Cells are seeded on day 1 at cell numbers that assure assay linearity and optimal signal intensity. After incubation for 24h in humidified chambers at 37°C and 5% CO2, compounds in DMSO are added at different concentrations. Cells are further incubated for 72 h at 37°C and 5% CO2. Cells treated with the compound vehicle DMSO are used as positive controls and cells treated with 10 µM Staurosporine serve as negative controls. At day 5 the CellTiter Glo Reagent is prepared according to the instructions of the kit (Promega Inc.): Reagent is mixed 1:1 with cell culture medium. Thereon, mixture and assay plates are equilibrated at room temperature for 20 min. Equal volumes of the reagent-medium-mixture is added to the volume of culture medium present in each well. The plates are mixed at ∼200 rpm for 2 minutes on an orbital shaker. The microplates are then incubated at room temperature for 10 minutes for stabilization of the luminescent signal. Following incubation the luminescence is recorded on a Victor microplate reader (Perkin Elmer) using a 200 ms integration time. The data is then analyzed with Excel using the XLFIT Plugin (dose response Fit 205) for IC50-determination. As quality control the Z'-factor is calculated from 16 positive and negative control values. Only assay results showing a Z'-factor ≥ 0.5 are used for further analysis.

[2] = target: EGFR L858R (Homo sapiens, UniProt P00533, L858R); assay: Lance assay, EGFR L858R; conditions: biochemical Lance assay
EGFR L858R, sequence (P00533 25-1210 L858R): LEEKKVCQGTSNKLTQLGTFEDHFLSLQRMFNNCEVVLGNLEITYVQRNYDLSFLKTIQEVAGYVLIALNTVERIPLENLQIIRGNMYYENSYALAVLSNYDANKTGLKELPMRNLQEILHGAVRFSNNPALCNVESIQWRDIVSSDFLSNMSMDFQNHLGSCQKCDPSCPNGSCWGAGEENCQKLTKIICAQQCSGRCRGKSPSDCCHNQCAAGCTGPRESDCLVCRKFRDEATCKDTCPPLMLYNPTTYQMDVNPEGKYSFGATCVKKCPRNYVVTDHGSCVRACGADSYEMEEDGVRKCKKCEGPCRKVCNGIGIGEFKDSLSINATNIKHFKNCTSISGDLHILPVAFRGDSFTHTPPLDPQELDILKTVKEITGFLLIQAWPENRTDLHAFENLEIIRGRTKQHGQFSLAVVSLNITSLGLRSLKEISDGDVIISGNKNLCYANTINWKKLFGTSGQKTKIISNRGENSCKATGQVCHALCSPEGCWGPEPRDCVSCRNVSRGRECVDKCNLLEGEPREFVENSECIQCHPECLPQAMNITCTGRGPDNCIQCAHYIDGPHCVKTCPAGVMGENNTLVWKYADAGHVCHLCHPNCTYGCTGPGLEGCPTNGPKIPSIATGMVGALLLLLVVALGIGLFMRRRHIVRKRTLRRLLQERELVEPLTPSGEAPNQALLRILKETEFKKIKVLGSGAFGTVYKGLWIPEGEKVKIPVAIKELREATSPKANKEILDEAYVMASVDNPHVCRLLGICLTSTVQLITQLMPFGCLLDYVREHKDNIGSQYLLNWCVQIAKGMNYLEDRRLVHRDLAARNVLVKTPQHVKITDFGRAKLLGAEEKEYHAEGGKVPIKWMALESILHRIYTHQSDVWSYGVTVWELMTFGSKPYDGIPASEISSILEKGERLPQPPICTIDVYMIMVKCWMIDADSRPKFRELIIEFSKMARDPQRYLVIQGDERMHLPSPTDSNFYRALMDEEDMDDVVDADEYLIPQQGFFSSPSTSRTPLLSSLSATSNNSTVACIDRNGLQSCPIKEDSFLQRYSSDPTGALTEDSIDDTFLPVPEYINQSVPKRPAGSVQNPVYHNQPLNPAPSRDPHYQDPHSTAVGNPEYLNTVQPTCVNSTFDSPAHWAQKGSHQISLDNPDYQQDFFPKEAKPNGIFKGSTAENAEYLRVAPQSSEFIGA

[3] = system: H1975; assay: CellTiter-Glo cell viability, H1975; type: cell-based; conditions: Homo sapiens, NCI-H1975, 72 h, read-out: H1975 CTG IC50
Outline: (§2)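 Cells seeded, incubated 24 h at 37°C/5% CO2, then dosed with compound in DMSO at various concentrations for 72 h. Viability read as ATP luminescence (CellTiter-Glo); DMSO and 10 µM staurosporine controls, IC50 from dose-response fit, runs accepted only with Z' ≥ 0.5.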

[4] = system: A431; assay: CellTiter-Glo cell viability, A431; type: cell-based; conditions: Homo sapiens, A-431, 72 h, read-out: A431 CTG IC50
Outline: as §2

[5] = target: T1, HER2 INS YVMA (Homo sapiens, UniProt P04626, INS775YVMA); assay: Lance Kinase Activity Assay, Her2 Exon 20 InsYVMA; conditions: biochemical Lance assay
T1 construct: purchased DPF
T1 sequence (P04626 with tags, fused parts or gaps INS775YVMA): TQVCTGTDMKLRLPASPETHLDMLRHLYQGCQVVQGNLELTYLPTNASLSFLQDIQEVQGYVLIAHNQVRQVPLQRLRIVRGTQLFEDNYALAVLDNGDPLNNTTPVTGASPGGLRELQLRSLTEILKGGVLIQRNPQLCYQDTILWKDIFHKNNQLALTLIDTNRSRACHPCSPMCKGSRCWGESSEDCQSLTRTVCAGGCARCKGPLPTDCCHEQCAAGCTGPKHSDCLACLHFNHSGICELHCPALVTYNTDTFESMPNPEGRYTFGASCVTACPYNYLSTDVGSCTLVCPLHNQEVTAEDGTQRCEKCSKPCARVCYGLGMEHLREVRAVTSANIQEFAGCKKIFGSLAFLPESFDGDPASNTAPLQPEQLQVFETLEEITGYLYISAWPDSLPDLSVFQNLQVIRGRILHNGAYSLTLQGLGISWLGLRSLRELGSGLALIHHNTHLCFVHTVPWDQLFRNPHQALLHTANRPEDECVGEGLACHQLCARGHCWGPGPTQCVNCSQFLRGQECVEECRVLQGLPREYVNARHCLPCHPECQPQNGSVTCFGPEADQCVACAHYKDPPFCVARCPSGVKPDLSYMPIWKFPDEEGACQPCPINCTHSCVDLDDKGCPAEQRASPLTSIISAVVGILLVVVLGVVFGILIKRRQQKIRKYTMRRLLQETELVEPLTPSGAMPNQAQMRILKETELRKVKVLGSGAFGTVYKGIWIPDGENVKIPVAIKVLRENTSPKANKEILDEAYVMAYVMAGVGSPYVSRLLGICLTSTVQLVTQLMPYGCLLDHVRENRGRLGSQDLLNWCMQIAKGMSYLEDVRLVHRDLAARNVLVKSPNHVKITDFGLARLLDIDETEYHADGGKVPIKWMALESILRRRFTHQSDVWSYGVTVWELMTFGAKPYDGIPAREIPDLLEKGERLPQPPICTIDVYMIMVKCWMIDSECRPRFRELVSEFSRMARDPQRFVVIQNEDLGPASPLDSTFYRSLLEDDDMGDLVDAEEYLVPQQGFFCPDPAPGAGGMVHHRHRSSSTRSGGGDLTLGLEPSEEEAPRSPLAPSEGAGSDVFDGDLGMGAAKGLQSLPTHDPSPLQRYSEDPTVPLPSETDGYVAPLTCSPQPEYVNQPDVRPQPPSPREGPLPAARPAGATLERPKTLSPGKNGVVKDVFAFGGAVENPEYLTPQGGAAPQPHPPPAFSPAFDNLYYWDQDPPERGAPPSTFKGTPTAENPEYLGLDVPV
Outline: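 TR-FRET (LANCE) assay: HER2 ex20 YVMA kinase phosphorylates ULight-peptide; compounds in 8-point 1:3 dilutions from 10 mM DMSO stock; ATP-started, 1 h at room temperature, stopped with EDTA plus Eu-anti-phosphopeptide antibody, 1 h more. Read 665/615 nm emission; IC50 from sigmoidal dose-response curves.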

[6] = system: Cuto-17; assay: CellTiter-Glo cell viability, Cuto-17; type: cell-based; conditions: CUTO17, 72 h, read-out: Cuto-17 CTG IC50
Outline: as §2

[7] = target: EGFR T790M L858R (Homo sapiens, UniProt P00533, L858R/T790M); assay: Lance assay, EGFR T790M L858R; conditions: biochemical Lance assay
EGFR T790M L858R, sequence (P00533 25-1210 T790M/L858R): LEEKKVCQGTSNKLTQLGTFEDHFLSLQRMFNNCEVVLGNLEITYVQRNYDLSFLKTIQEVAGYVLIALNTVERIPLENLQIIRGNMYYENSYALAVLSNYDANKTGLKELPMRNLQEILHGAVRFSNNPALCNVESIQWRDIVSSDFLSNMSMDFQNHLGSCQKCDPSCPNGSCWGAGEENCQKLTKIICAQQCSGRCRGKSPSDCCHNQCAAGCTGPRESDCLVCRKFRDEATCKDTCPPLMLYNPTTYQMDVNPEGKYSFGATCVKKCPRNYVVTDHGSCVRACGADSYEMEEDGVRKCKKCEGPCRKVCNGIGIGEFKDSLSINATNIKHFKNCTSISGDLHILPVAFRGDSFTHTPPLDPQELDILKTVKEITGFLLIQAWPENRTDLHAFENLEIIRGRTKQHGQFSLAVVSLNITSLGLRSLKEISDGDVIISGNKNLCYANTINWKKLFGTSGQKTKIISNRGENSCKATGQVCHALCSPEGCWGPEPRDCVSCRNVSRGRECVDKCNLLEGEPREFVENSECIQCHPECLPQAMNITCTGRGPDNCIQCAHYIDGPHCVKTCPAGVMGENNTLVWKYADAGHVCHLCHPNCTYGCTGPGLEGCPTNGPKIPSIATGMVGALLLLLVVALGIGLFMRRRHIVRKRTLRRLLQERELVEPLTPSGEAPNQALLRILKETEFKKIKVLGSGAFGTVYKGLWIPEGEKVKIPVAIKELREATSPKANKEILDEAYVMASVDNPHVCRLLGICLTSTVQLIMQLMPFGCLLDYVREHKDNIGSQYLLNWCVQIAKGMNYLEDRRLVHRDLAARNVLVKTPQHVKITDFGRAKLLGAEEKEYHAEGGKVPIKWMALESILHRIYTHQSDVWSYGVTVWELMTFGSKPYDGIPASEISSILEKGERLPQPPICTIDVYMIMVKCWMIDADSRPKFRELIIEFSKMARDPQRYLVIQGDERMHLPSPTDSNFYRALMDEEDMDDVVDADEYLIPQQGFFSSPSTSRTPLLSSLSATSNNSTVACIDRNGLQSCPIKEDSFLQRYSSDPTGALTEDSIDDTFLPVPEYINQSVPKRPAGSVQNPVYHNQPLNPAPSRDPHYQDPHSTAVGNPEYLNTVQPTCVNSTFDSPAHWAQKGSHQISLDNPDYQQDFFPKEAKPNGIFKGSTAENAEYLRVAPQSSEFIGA

[8] = target: EGFR (del746-750) (Homo sapiens, UniProt P00533, DEL746-750); assay: Lance assay, EGFR (del746-750); conditions: biochemical Lance assay
EGFR (del746-750), sequence (P00533 with tags, fused parts or gaps DEL746-750): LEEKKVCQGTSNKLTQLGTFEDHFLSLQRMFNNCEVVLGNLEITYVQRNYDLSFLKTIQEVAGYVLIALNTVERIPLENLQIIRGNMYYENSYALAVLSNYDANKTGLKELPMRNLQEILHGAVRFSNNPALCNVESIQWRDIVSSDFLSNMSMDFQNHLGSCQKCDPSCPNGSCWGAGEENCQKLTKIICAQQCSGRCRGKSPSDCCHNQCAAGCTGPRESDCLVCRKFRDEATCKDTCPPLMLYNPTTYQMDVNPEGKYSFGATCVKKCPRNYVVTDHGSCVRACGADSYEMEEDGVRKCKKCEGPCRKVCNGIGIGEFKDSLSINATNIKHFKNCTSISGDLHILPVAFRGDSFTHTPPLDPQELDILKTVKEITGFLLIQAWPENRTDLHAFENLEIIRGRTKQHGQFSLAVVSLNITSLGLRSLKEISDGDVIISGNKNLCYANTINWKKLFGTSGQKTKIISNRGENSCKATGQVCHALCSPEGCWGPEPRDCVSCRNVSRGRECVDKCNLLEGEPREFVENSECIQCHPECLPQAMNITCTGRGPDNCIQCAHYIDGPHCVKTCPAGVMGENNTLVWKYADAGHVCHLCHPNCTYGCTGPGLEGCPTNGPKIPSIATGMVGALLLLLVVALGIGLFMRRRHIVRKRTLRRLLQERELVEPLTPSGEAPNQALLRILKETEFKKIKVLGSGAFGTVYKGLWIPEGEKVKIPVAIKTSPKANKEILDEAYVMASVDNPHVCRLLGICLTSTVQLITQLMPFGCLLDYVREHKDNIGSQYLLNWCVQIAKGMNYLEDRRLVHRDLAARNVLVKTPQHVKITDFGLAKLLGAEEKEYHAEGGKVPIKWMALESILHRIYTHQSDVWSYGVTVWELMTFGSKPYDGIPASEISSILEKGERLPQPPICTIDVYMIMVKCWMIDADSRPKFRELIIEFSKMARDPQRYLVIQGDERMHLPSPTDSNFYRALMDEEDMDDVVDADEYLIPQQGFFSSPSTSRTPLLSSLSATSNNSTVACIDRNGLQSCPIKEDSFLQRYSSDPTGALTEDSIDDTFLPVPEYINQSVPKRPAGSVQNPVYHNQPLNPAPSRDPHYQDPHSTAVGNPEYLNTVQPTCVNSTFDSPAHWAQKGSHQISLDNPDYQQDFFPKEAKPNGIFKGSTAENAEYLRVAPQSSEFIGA

[9] = system: EGFR L858R Ba/F3; assay: CellTiter-Glo cell viability, EGFR L858R Ba/F3; type: cell-based; conditions: Mus musculus, BaF3, 72 h, read-out: EGFR L858R Ba/F3 CTG IC50 /
Experimental: as §1

[10] = target: EGFR wt (Homo sapiens, UniProt P00533); assay: Lance assay, EGFR wt; conditions: biochemical Lance assay
[11] = system: Her2 Exon 20 InsYVMA Ba/F3; assay: CellTiter-Glo cell viability, Her2 Exon 20 InsYVMA Ba/F3; type: cell-based; conditions: Mus musculus, BaF3, 72 h, read-out: Her2 Exon 20 InsYVMA Ba/F3 CTG IC50
Outline: as §2

[12] = system: EGFR vIII Ba/F3; assay: CellTiter-Glo cell viability, EGFR vIII Ba/F3; type: cell-based; conditions: Mus musculus, BaF3, 72 h, read-out: EGFR vIII Ba/F3 CTG IC50 /
Outline: as §2

[13] = system: EGFR Exon 20 InsNPH Ba/F3; assay: CellTiter-Glo cell viability, EGFR Exon 20 InsNPH Ba/F3; type: cell-based; conditions: Mus musculus, BaF3, 72 h, read-out: EGFR Exon 20 InsNPH Ba/F3 CTG IC50
Outline: as §2

pIC50 [1] | pIC50 [2] | pIC50 [3] | pIC50 [4] | pIC50 [5] | pIC50 [7] | pIC50 [8] | pIC50 [9] | pIC50 [10] | pIC50 [11] | pIC50 [12] | pIC50 [13] | Structure (SMILES) | pIC50 [6]
≥ 7.30 | ≥ 7.30 | 6.30 to 7.00 | 5.00 to 6.00 | ≥ 7.30 | ≥ 7.30 | ≥ 7.30 | ≥ 7.30 | ≥ 7.30 | 6.30 to 7.00 | 7.00 to 7.30 | 7.00 to 7.30 | C=CC(=O)Nc1cc(-c2c(-c3cnn(CCN(C)C)c3)[nH]c3ncc(C(=O)OC(C)C)c(C)c23)ccc1C [Example 15, isopropyl 3-(3-acrylamido-4-methylphenyl)-2-(1-(2-(dimethylamino)ethyl)-1 H-pyrazol-4-yl)-4-methyl-1 H-pyrrolo[2,3-b]pyridine-5-carboxylate] | 6.30 to 7.00
≥ 7.30 | ≥ 7.30 | 6.00 to 6.30 | 5.00 to 6.00 | 7.00 to 7.30 | ≥ 7.30 | ≥ 7.30 | ≥ 7.30 | ≥ 7.30 | 7.00 to 7.30 | 6.30 to 7.00 | 7.00 to 7.30 | C=CC(=O)Nc1cc(-c2c(-c3cnn(CC)c3)[nH]c3ncc(C(=O)OC(C)C)cc23)cc(F)c1C [Example 5, isopropyl 3-(3-acrylamido-5-fluoro-4-methylphenyl)-2-(1-ethyl-1 H-pyrazol-4-yl)-1H-pyrrolo[2,3-b]pyridine-5-carboxylate] | 6.30 to 7.00

Reference: patent EP3868759A1, “2,3,5-SUBSTITUTED PYRROLO[2,3-B]PYRIDINES AS ERBB MODULATORS USEFUL FOR TREATING CANCER” (PearlRiver Bio GmbH, priority 2020, dated 2021)
